Laboratory results reported in patent US8173674B2, “Sulfonyl-phenyl-2H-[1,2,4]oxadiazol-5-one derivatives, processes for their preparation and their use as pharmaceuticals” (Sanofi-Aventis, priority 2006, dated 2012).
Where two headings read alike, the source gives them in different places.

What was measured:
human PPARalpha = biological target: T1, human PPARalpha (Homo sapiens, UniProt Q07869); test: cellular PPARalpha assay (luciferase reporter, stably transfected HEK cell line); format: cell-based
T1 construct: amino acids S167-Y468; expressed in transfected cells
T1 sequence (Q07869 167-468): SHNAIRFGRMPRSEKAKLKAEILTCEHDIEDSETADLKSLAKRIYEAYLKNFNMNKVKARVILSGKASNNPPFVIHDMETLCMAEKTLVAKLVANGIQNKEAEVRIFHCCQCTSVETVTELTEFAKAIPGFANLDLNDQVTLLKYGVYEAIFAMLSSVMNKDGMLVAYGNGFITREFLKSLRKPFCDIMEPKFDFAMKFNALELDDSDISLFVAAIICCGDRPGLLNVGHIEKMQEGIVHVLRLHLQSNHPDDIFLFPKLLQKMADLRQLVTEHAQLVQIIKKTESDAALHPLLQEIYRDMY
Method: (§1) The potency of substances which bind to human PPARalpha and activate it in an agonistic manner is analyzed using a stably transfected HEK cell line (HEK=human embryo kidney) which is referred to here as PPARalpha reporter cell line. It contains two genetic elements, a luciferase reporter element (pdeltaM-GAL4-Luc-Zeo) and a PPARalpha fusion protein (GR-GAL4-humanPPARalpha-LBD) which mediates expression of the luciferase reporter element depending on a PPARalpha ligand. The stably and constitutively expressed fusion protein GR-GAL4-humanPPARalpha-LBD binds in the cell nucleus of the PPARalpha reporter cell line via the GAL4 protein portion to the GAL4 DNA binding motifs 5′-upstream of the luciferase reporter element which is stably integrated in the genome of the cell line. There is only weak expression of the luciferase reporter gene in the absence of a PPARalpha ligand if fatty acid-depleted fetal calf serum (cs-FCS) is used in the assay. PPARalpha ligands bind and activate the PPARalpha fusion protein and thereby stimulate the expression of the luciferase reporter gene. The luciferase which is formed can be detected by means of chemiluminescence via an appropriate substrate.
The PPARalpha reporter cell line was prepared in two stages. Firstly, the luciferase reporter element was constructed and stably transfected into HEK cells. For this purpose, five binding sites of the yeast transcription factor GAL4 (Accession # AF264724) were cloned in 5′-upstream of a 68 bp-long minimal MMTV promoter (Accession # V01175). The minimal MMTV promoter section contains a CCAAT box and a TATA element in order to enable efficient transcription by RNA polymerase II. The cloning and sequencing of the GAL4-MMTV construct took place in analogy to the description of Sambrook J. et. al. (Molecular cloning, Cold Spring Harbor Laboratory Press, 1989). Then the complete Photinus pyralis gene (Accession # M15077) was cloned in 3′-downstream of the GAL4-MMTV element. After sequencing, the luciferase reporter element consisting of five GAL4 binding sites, MMTV promoter and luciferase gene was recloned into a plasmid which confers zeocin resistance in order to obtain the plasmid pdeltaM-GAL4-Luc-Zeo. This vector was transfected into HEK cells in accordance with the statements in Ausubel, F. M. et al. (Current protocols in molecular biology, Vol. 1-3, John Wiley & Sons, Inc., 1995).
In a second step, the PPARalpha fusion protein (GR-GAL4-humanPPARalpha-LBD was introduced into the stable cell clone described. For this purpose, initially the cDNA coding for the N-terminal 76 amino acids of the glucocorticoid receptor (Accession # P04150) was linked to the cDNA section coding for amino acids 1-147 of the yeast transcription factor GAL4 (Accession # P04386). The cDNA of the ligand-binding domain of the human PPARalpha receptor (amino acids S167-Y468; Accession # S74349) was cloned in at the 3′-end of this GR-GAL4 construct. The fusion construct prepared in this way (GR-GAL4-humanPPARalpha-LBD) was recloned into the plasmid pcDNA3 (Invitrogen) in order to enable constitutive expression therein by the cytomegalovirus promoter. This plasmid was linearized with a restriction endonuclease and stably transfected into the previously described cell clone containing the luciferase reporter element. The finished PPARalpha reporter cell line which contains a luciferase reporter element and constitutively expresses the PPARalpha fusion protein (GR-GAL4-human PPARalpha-LBD) was isolated by selection with zeocin (0.5 mg/ml) and G418 (0.5 mg/ml).
The activity of PPARalpha agonists is determined in a 3-day assay which is described below: […]

human PPARdelta = biological target: T2, human PPARdelta (Homo sapiens, UniProt Q03181); test: cellular PPARdelta assay (luciferase reporter, stably transfected HEK cell line); format: cell-based; details: GR-GAL4-humanPPARdelta-LBD
T2 construct: amino acids S139-Y441; expressed in transfected cells
T2 sequence (Q03181 139-441): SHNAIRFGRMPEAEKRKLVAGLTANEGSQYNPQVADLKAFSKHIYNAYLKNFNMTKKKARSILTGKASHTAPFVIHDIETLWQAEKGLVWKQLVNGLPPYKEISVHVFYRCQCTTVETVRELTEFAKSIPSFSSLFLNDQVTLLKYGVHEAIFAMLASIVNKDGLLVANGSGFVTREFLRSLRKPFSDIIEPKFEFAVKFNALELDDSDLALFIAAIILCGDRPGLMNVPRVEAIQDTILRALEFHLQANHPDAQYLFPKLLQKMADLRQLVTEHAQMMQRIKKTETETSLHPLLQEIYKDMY
Method: as §1, with “PPARdelta” for “PPARalpha”, “In analogy to the assay described for PPARalpha, the PPARdelta reporter cell line also” for “It”, “(GR-GAL4-humanPPARdelta-LBD)” for “(GR-GAL4-humanPPARalpha-LBD)”, “GR-GAL4-humanPPARdelta-LBD” for “GR-GAL4-humanPPARalpha-LBD”, “little” for “weak”, “stimulate” for “stimulate the”
The production of the stable PPARdelta reporter cell line is based on a stable HEK-cell clone which was stably transfected with a luciferase reporter element. This step was already described above in the section “construction of the PPARalpha reporter cell line”. […]
The activity of PPARdelta agonists is determined in a 3-day assay in exact analogy to the procedure already described for the PPARalpha reporter cell line except that the PPARdelta reporter cell line and a specific PPARdelta agonist was used as a standard to control test efficacy.

PPARdelta [1] = biological target: T3, PPARdelta (Macaca mulatta, UniProt I0FFS1); details: obese, insulin resistant rhesus monkeys; cited from earlier work
T3 sequence (I0FFS1 1-441): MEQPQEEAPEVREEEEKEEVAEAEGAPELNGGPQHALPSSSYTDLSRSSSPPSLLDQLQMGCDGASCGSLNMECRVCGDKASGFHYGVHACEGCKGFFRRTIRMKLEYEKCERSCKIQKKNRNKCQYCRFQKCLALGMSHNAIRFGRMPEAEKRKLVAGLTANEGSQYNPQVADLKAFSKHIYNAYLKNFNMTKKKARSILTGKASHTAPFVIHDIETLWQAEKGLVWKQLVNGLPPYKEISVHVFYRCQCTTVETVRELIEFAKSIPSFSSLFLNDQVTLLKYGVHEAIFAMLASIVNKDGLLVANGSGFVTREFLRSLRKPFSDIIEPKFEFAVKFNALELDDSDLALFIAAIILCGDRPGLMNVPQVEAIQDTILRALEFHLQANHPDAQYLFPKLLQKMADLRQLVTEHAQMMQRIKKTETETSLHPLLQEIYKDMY

PPARdelta [2] = details: diabetic animal model; cited from earlier work
PPARdelta/PPARalpha [3] = details: rhesus and cynomolgus monkeys; cited from earlier work
PPARdelta/PPARalpha [4] = details: two weeks clinical trials, healthy volunteers; cited from earlier work
[5] = GR-GAL4-humanPPARalpha-LBD, read-out: PPARalpha EC50
[6] = read-out: PPARalpha EC50 values (range given)

O=c1[nH]c(-c2ccc(S(=O)(=O)N3CCc4cc(-c5ccc(C(F)(F)F)cc5)ccc43)cc2Cl)no1 [Example 3, 3-{2-Chloro-4-[5-(4-trifluoromethyl-phenyl)-2,3-dihydro-indole-1-sulfonyl]-phenyl}-4H-[1,2,4]oxadiazol-5-one]
EC50 (human PPARalpha; [5]): 1110 nM
EC50 (human PPARalpha; [6]): 1000 to 5000 nM
EC50 (human PPARdelta): 3 nM

O=c1[nH]c(-c2ccc(S(=O)(=O)N3CCc4cc(-c5ccc(C(F)(F)F)cc5)ccc43)cc2)no1 [Example 1, 3-{4-[5-(4-Trifluoromethyl-phenyl)-2,3-dihydro-indole-1-sulfonyl]-phenyl}-4H-[1,2,4]oxadiazol-5-one]
EC50 (human PPARalpha; [6]): 1000 to 5000 nM

CC1(C)CN(S(=O)(=O)c2ccc(-c3nc(=O)o[nH]3)cc2)c2ccc(-c3ccc(C(F)(F)F)cc3)cc21 [Example 2, 3-{4-[3,3-Dimethyl-5-(4-trifluoromethyl-phenyl)-2,3-dihydro-indole-1-sulfonyl]-phenyl}-2H-[1,2,4]oxadiazol-5-one]
EC50 (human PPARalpha; [5]): 3520 nM
EC50 (human PPARalpha; [6]): 1000 to 5000 nM
EC50 (human PPARdelta): 15 nM

O=c1nc(-c2ccc(S(=O)(=O)N3CCc4ccc(-c5ccc(C(F)(F)F)cc5)cc4C3)cc2Cl)[nH]o1 [Example 5, 3-{2-Chloro-4-[7-(4-trifluoromethyl-phenyl)-3,4-dihydro-1H-isoquinoline-2-sulfonyl]-phenyl}-2H-[1,2,4]oxadiazol-5-one]
EC50 (human PPARalpha; [5]): 1640 nM
EC50 (human PPARalpha; [6]): 1000 to 5000 nM
EC50 (human PPARdelta): 35 nM

CC1(C)CN(S(=O)(=O)c2ccc(-c3nc(=O)o[nH]3)c(Cl)c2)c2ccc(-c3ccc(C(F)(F)F)cc3)cc21 [Example 4, 3-{2-Chloro-4-[3,3-dimethyl-5-(4-trifluoromethyl-phenyl)-2,3-dihydro-indole-1-sulfonyl]-phenyl}-2H-[1,2,4]oxadiazol-5-one]
EC50 (human PPARalpha; [6]): 1000 to 5000 nM

Cc1cc(SCc2sc(-c3ccc(C(F)(F)F)cc3)nc2C)ccc1OCC(=O)O [GW501516]
HDL-cholesterol (PPARdelta [1]): raises
insulin levels (PPARdelta [1]): decreases
plasma LDL-cholesterol (PPARdelta [1]): decreases
triglycerides (PPARdelta [1]): decreases

CCCc1c(OCCCOc2ccc(OCC(=O)O)cc2)ccc(C(C)=O)c1O [Example L-165041]
plasma cholesterol (PPARdelta [2]): raises

CCCc1c(OCCCSc2nnc(SCC(=O)O)s2)ccc(C(C)=O)c1O [YM-16638]
plasma lipids (PPARdelta/PPARalpha [3]): significantly lowers
plasma lipids (PPARdelta/PPARalpha [4]): acts in a similar manner
